# Experimental data: patent US4888417A, “Therapeutic and prophylactic agents for peptic ulcer” (Green Cross Corporation, priority 1985, dated 1989)
# How the values were obtained:
# Serotonin Induced Ulcer = experiment: Serotonin Induced Ulcer; type: in vivo, Wister strain male rats; design: unit not given here; details: 30 min before serotonin; for Ulcer Index: mean ± standard error (n=8)
# Description: Wister strain male rats (weighing 160 to 180 g) were used after one day's fasting. Serotonin creatinine sulfate (30 mg/ml) was subcutaneously administered to the rats on the back at a rate of 1 ml per kg of the body weight. The stomach was excised 5 hours after administration of serotonin, and the total area of hemorrhagic erosion was measured as an ulcer index. The test drug was intragastrically administered to the rats through an oral Zonde (probe) 30 minutes before administration of serotonin.
# (§1) Each numeral in the table indicates the mean ± standard error (n=8)
# (§2) All the test drugs (compounds of this invention) were intragastrically administered by an oral Zonde (probe).
# [1] = anti-ulcer activity used as index in fractionation; details: single (peak) component from HPLC fractionation of cinnamon extract
# Description: After washing with water, the resin was eluted using a 40 to 80% methanol aqueous solution as an eluent; the eluted fraction thus obtained was concentrated under reduced pressure and freeze dried to afford 148 g of a crude powder.
# 50 kg of cinnamon was treated with hot water at 60° to 100° C. for 1 to 2 hours, and the resultant extract was adsorbed onto 100 to 140 liters of the Amberlite XAD-2 resin. This resin was washed with water, then eluted using a 40 to 80% aqueous methanol solution as an eluent; the eluted fraction thus obtained was concentrated under reduced pressure and freeze dried to obtain 148 g of a crude powder.
# 200 kg of cinammon was treated with hot water at 60° to 100° C. for 1 to 2 hours, and the resultant extract was adsorbed onto 400 to 500 liters of the Amberlite XAD-2 resin. This resin was washed with water, then eluted with a 40 to 80% aqueous methanol solution as an eluent, the eluted fraction thus obtained was concentrated under reduced pressure and freeze-dried to obtain 590 g of a crude powder.
# Stress Ulcer = experiment: Stress Ulcer; type: in vivo, Wister strain male rats; details: immediately before stress; for Ulcer Index: mean ± standard error (n=8)
# Description: Wister strain male rats (weighing 230-250 g) were fasted for 2 days, then, while confined in a Tokyo University Pharmaceutics Laboratory model cage, they were immersed up to the xiphocosta and pulled up 6 hours later, to determine the ulcer index. That is, the rats were clubbed to death, the major axis of hemorrhagic erosion was measured, and the total was made the ulcer index. the test drug was intragastrically administered through an oral Zonde (probe) immediately before the loading of stress.
# as §1, §2
# Ethanol Induced Ulcer = experiment: Ethanol Induced Ulcer; type: in vivo, Wister strain male rats; design: Rate of Inhibition: unit not given here; details: 30 min before ethanol; for Ulcer Index: mean ± standard error (n=8)
# Description: Wister strain male rats (weighing 160-180 g) were fasted for one day and intragastrically administed with 50% (v/v) ethanol at a rate of 1 ml per rat. The test drug was intragastirically administered through an oral Zonde (probe) 30 minutes before administration of ethanol. One hour after administration of ethanol, the rats were poisoned to death by inhalation of chloroform, each stomach was excised, the major axis of hemorrhagic erosion on the stomach part was measured, and the total was made an ulcer index.
# as §1, §2
compound,measurement,setting,value
"COc1cc(O[C@@H]2O[C@H](CO[C@@H]3OC[C@](O)(CO)[C@H]3O)[C@@H](O)[C@H](O)[C@H]2O)cc(OC)c1OC [(II-1), 3,4,5-trimethoxyphenol-β-D-apiofranosyl-(1→6)-β-D-glucopyranoside]",Rate of Inhibition,Serotonin Induced Ulcer; 0.15 μg/kg intragastric,57.1
same,Ulcer Index,Serotonin Induced Ulcer; 0.15 μg/kg intragastric,7.5 ± 2.3
same,Rate of Inhibition,Serotonin Induced Ulcer; 0.30 μg/kg intragastric,70.9
same,Ulcer Index,Serotonin Induced Ulcer; 0.30 μg/kg intragastric,5.1 ± 1.9
same,anti-ulcer activity among fractions,[1],manifesting the activity most strongly
same,Rate of Inhibition,Stress Ulcer; 0.15 μg/kg intragastric,23.7
same,Ulcer Index,Stress Ulcer; 0.15 μg/kg intragastric,21.6 ± 5.8
same,Rate of Inhibition,Stress Ulcer; 0.30 μg/kg intragastric,58.5
same,Ulcer Index,Stress Ulcer; 0.30 μg/kg intragastric,11.7 ± 3.0
same,Rate of Inhibition,Ethanol Induced Ulcer; 0.15 μg/kg intragastric,11.1
same,Ulcer Index,Ethanol Induced Ulcer; 0.15 μg/kg intragastric,45.3 ± 14.0
same,Rate of Inhibition,Ethanol Induced Ulcer; 0.30 μg/kg intragastric,47.1
same,Ulcer Index,Ethanol Induced Ulcer; 0.30 μg/kg intragastric,27.0 ± 7.4
"COc1cc(O)cc(OC)c1OC [(II-2), 3,4,5-trimethoxyphenol]",Rate of Inhibition,Serotonin Induced Ulcer; 0.05 μg/kg intragastric,26.7
same,Ulcer Index,Serotonin Induced Ulcer; 0.05 μg/kg intragastric,15.1 ± 4.6
same,Rate of Inhibition,Serotonin Induced Ulcer; 0.15 μg/kg intragastric,45.6
same,Ulcer Index,Serotonin Induced Ulcer; 0.15 μg/kg intragastric,11.2 ± 2.4
CC(=O)C=C=C1C(C)(C)CC(O[C@@H]2O[C@H](CO[C@@H]3OC[C@](O)(CO)[C@H]3O)[C@@H](O)[C@H](O)[C@H]2O)CC1(C)O (stereo partly drawn) [(III-1)],Rate of Inhibition,Serotonin Induced Ulcer; 0.075 μg/kg intragastric,2.9
same,Ulcer Index,Serotonin Induced Ulcer; 0.075 μg/kg intragastric,17.0 ± 3.1
same,Rate of Inhibition,Serotonin Induced Ulcer; 0.15 μg/kg intragastric,75.4
same,Ulcer Index,Serotonin Induced Ulcer; 0.15 μg/kg intragastric,4.3 ± 1.1
same,anti-ulcer activity among fractions,[1],manifesting the activity most strongly
same,Rate of Inhibition,Stress Ulcer; 0.075 μg/kg intragastric,41.3
same,Ulcer Index,Stress Ulcer; 0.075 μg/kg intragastric,16.6 ± 3.2
same,Rate of Inhibition,Stress Ulcer; 0.15 μg/kg intragastric,66.8
same,Ulcer Index,Stress Ulcer; 0.15 μg/kg intragastric,9.4 ± 2.3
same,Rate of Inhibition,Ethanol Induced Ulcer; 0.075 μg/kg intragastric,51.6
same,Ulcer Index,Ethanol Induced Ulcer; 0.075 μg/kg intragastric,24.7 ± 10.6
same,Rate of Inhibition,Ethanol Induced Ulcer; 0.15 μg/kg intragastric,56.5
same,Ulcer Index,Ethanol Induced Ulcer; 0.15 μg/kg intragastric,22.2 ± 8.1
"CC1=C(/C=C/C(CO)CO)C(C)(CO[C@@H]2O[C@H](CO)[C@@H](O)[C@H](O)[C@H]2O)CCC1=O (stereo partly drawn) [(IV-1), 2,4-dimethyl-3-(4-hydroxy-3-hydroxymethyl-1-butenyl)-4-(β-D-glucopyranosyl)oxymethyl-2-cyclohexen-1-one]",Rate of Inhibition,Serotonin Induced Ulcer; 0.1 μg/kg intragastric,47.0
same,Ulcer Index,Serotonin Induced Ulcer; 0.1 μg/kg intragastric,7.1 ± 3.4
same,Rate of Inhibition,Serotonin Induced Ulcer; 1 μg/kg intragastric,51.5
same,Ulcer Index,Serotonin Induced Ulcer; 1 μg/kg intragastric,6.5 ± 2.5
same,anti-ulcer activity among fractions,[1],manifesting the activity most strongly
CC1=C(/C=C/C(CO)CO)C(C)(CO)CCC1=O (stereo not drawn) [(IV-2)],Rate of Inhibition,Serotonin Induced Ulcer; 0.06 μg/kg intragastric,65.7
same,Ulcer Index,Serotonin Induced Ulcer; 0.06 μg/kg intragastric,4.6 ± 1.2
same,Rate of Inhibition,Serotonin Induced Ulcer; 6 μg/kg intragastric,76.9
same,Ulcer Index,Serotonin Induced Ulcer; 6 μg/kg intragastric,3.1 ± 1.2
